Measured values: PMC9284540 (Journal of Molecular Biology, 2022)

How the values were obtained:
[1] = biological target: T1, SARS-CoV-2^F360N/D361S MD (Severe acute respiratory syndrome coronavirus 2, UniProt P0DTD1, D1179S/F1178N); type: biochemical
[2] = biological target: T2, SARS-CoV-2^A358V/F360N MD (Severe acute respiratory syndrome coronavirus 2, UniProt P0DTD1, A1176V/F1178N); type: binding
[3] = biological target: T2, SARS-CoV-2^A358V/F360N MD; type: biochemical
[4] = biological target: T1, SARS-CoV-2^F360N/D361S MD; type: binding

N#C[C@@]1(c2ccc3c(N)ncnn23)O[C@H](CO)[C@@H](O)[C@H]1O [GS-441524]
Initial substrate decay rate k [1]: 0.160 ± 0.007 µM/min
decrease of the k value vs free form [1]: 24.9%
exchange regime on NMR time scale [2]: fast exchange regime
Initial substrate decay rate k [3]: 0.127 ± 0.01 µM/min
decrease of the k value vs free form [3]: 33.2%
exchange regime on NMR time scale [4]: fast exchange regime
